Laboratory results as given in article PMC5863496, “Mesobuthus Venom-Derived Antimicrobial Peptides Possess Intrinsic Multifunctionality and Differential Potential as Drugs” (Frontiers in Microbiology, 2018).
Ends that are not written are not given here.

Tests used:
Assay in all cases: Inhibition-zone assay (CL)
Type in all cases: cell-based
[1] = tested on: Bacillus megaterium CGMCC 1.0459; conditions: BM CGMCC 1.0459, N.A. = no activity at 0.8 nmol peptide each well
Procedure: (§1) The antimicrobial activity of seven peptides, including MeuFSPL-1, MeuFSPL-2, Marmelittin, Melittin, Meucin-22, Marcin-22, and MeuTXKβ1, was evaluated by the inhibition-zone assay previously described in our studies (Hultmark, [1998]; Zhu et al., [2012a]; Zhu and Gao, [2014]). Temperatures used were 30 or 37°C for bacteria or 28°C for fungi. Media used were Luria-Bertani (LB) Broth (10 g tryptone, 5 g yeast extract, and 5 g NaCl in 1 l of water) or Nutrient Broth (10 g peptone, 5 g beef extract powder, and 5 g NaCl in 1 l of water) or GYM(Isp2) (4 g yeast extract, 10 g malt extract, 4 g glucose, 2 g CaCO3 in 1 l of water) for bacteria or Potato Dextrose Broth (200 g patato and 20 g glucose in 1 l of water) for fungi. To make plates, 10 μl of microbial culture (~2 × 10^6 bacterial cells or fungal spores/ml) were mixed in 6 ml of medium containing 0.8% agar and poured into Peri dishes of 9.0 cm diameter. Wells with a diameter of 2 mm were punched into the medium, filled with 2 μl of sample each well. In this assay, three different doses of peptides were applied to three independent wells in one standard bacterial plate. After incubation overnight, inhibition zones were measured and used to calculate lethal concentrations (CL), a concentration just sufficient to inhibit bacterial growth (Hultmark, [1998]; Gao et al., [2009]). CL values are calculated from a plot of d^2 against log n, where d is the diameter (in cm) and n is the amount of sample applied in the well (in nmol). The plot is linear and thus CL can be calculated from the slope (k) and the intercept (m) of this plot. The formula used here is CL = 2.93/ak10^m/k, where “a” is the thickness of the bacterial plate and “CL” is in μM.

[2] = tested on: Bacillus subtilis CGMCC 1.2428; conditions: BS CGMCC 1.2428, N.A. = no activity at 0.8 nmol peptide each well
Procedure: as §1

[3] = tested on: Escherichia coli ATCC 25922; conditions: EC ATCC 25922, N.A. = no activity at 0.8 nmol peptide each well
Procedure: as §1

[4] = tested on: Escherichia coli Am. J16c; conditions: EC Am. J16c, N.A. = no activity at 0.8 nmol peptide each well
Procedure: as §1

[5] = tested on: Escherichia coli Am. J23a; conditions: EC Am. J23a, N.A. = no activity at 0.8 nmol peptide each well
Procedure: as §1

[6] = tested on: Escherichia coli CIP. J14b; conditions: EC CIP. J14b, N.A. = no activity at 0.8 nmol peptide each well
Procedure: as §1

[7] = tested on: Escherichia coli D. G2b; conditions: EC D. G2b, N.A. = no activity at 0.8 nmol peptide each well
Procedure: as §1

[8] = tested on: Micrococcus luteus CGMCC 1.0290; conditions: ML CGMCC 1.0290, N.A. = no activity at 0.8 nmol peptide each well
Procedure: as §1

[9] = tested on: Staphylococcus aureus J685; conditions: SA J685, N.A. = no activity at 0.8 nmol peptide each well
Procedure: as §1

[10] = tested on: Staphylococcus aureus J698; conditions: SA J698, N.A. = no activity at 0.8 nmol peptide each well
Procedure: as §1

[11] = tested on: Staphylococcus aureus J700; conditions: SA J700, N.A. = no activity at 0.8 nmol peptide each well
Procedure: as §1

[12] = tested on: Staphylococcus warneri ATCC 1.2824; conditions: SW ATCC 1.2824, N.A. = no activity at 0.8 nmol peptide each well
Procedure: as §1

[13] = tested on: Stenotrophomonas maltophilia CGMCC 1.1788; conditions: SMAL CGMCC 1.1788, N.A. = no activity at 0.8 nmol peptide each well
Procedure: as §1

[14] = tested on: Streptococcus mutans ATCC 1.2499; conditions: SM ATCC 1.2499, N.A. = no activity at 0.8 nmol peptide each well
Procedure: as §1

[15] = tested on: Streptococcus salivarius ATCC 1.2498; conditions: SSAL ATCC 1.2498, N.A. = no activity at 0.8 nmol peptide each well
Procedure: as §1

[16] = tested on: Streptococcus sanguinis ATCC 1.2497; conditions: SSAN ATCC 1.2497, N.A. = no activity at 0.8 nmol peptide each well
Procedure: as §1

[17] = tested on: methicillin-resistant Staphylococcus aureus P1374; conditions: MRSA P1374, N.A. = no activity at 0.8 nmol peptide each well
Procedure: as §1

[18] = tested on: methicillin-resistant Staphylococcus aureus P1386; conditions: MRSA P1386, N.A. = no activity at 0.8 nmol peptide each well
Procedure: as §1

[19] = tested on: methicillin-resistant coagulase-negative Staphylococcus P1369; conditions: MRCNS P1369, N.A. = no activity at 0.8 nmol peptide each well
Procedure: as §1

[20] = tested on: methicillin-sensitive Staphylococcus aureus CGMCC 1.89; conditions: MSSA CGMCC 1.89, N.A. = no activity at 0.8 nmol peptide each well
Procedure: as §1

[21] = tested on: penicillin-resistant Staphylococcus aureus P1383; conditions: PRSA P1383; inhibition-zone assay; N.A. = no activity at 0.8 nmol peptide each well
Procedure: as §1

[22] = tested on: penicillin-resistant Staphylococcus epidermidis P1389; conditions: PRSE P1389, N.A. = no activity at 0.8 nmol peptide each well
Procedure: as §1

[23] = tested on: penicillin-sensitive Staphylococcus epidermidis P1111; conditions: PSSE P1111, N.A. = no activity at 0.8 nmol peptide each well
Procedure: as §1

Row | Compound | Lethal concentration (CL) [1] [µM] | Lethal concentration (CL) [2] [µM] | Lethal concentration (CL) [3] [µM] | Lethal concentration (CL) [4] [µM] | Lethal concentration (CL) [5] [µM] | Lethal concentration (CL) [6] [µM] | Lethal concentration (CL) [7] [µM] | Lethal concentration (CL) [8] [µM] | Lethal concentration (CL) [9] [µM] | Lethal concentration (CL) [10] [µM] | Lethal concentration (CL) [11] [µM] | Lethal concentration (CL) [12] [µM] | Lethal concentration (CL) [13] [µM] | Lethal concentration (CL) [14] [µM] | Lethal concentration (CL) [15] [µM] | Lethal concentration (CL) [16] [µM] | Lethal concentration (CL) [17] [µM] | Lethal concentration (CL) [18] [µM] | Lethal concentration (CL) [19] [µM] | Lethal concentration (CL) [20] [µM] | further results
1 | CC[C@H](C)[C@H](NC(=O)CN)C(=O)NCC(=O)N[C@@H](C)C(=O)N[C@H](C(=O)N[C@@H](CC(C)C)C(=O)N[C@@H](CCCCN)C(=O)N[C@H](C(=O)N[C@@H](CC(C)C)C(=O)N[C@H](C(=O)N[C@H](C(=O)NCC(=O)N[C@@H](CC(C)C)C(=O)N1CCC[C@H]1C(=O)N[C@@H](C)C(=O)N[C@@H](CC(C)C)C(=O)N[C@H](C(=O)N[C@@H](CO)C(=O)N[C@@H](Cc1c[nH]c2ccccc12)C(=O)N[C@H](C(=O)N[C@@H](CCCCN)C(=O)N[C@@H](CCCNC(=N)N)C(=O)N[C@@H](CCCCN)C(=O)N[C@@H](CCCNC(=N)N)C(=O)N[C@@H](CCC(N)=O)C(=O)N[C@@H](CCC(N)=O)C(N)=O)[C@@H](C)CC)[C@@H](C)CC)[C@@H](C)O)[C@@H](C)O)C(C)C)C(C)C [Melittin, reference compound] | 11.6 | 9.2 | 14.4 | 24.54 | 18.20 | 18.20 | 18.20 | 7.5 | 13.70 | 12.08 | 12.08 | 1.37 | 18.72 | 9.37 | 18.20 | 16.41 | 11.6 | 9.3 | 9.3 | 7.9 | Lethal concentration (CL) [21]: 9.1 µM; Lethal concentration (CL) [22]: 9.1 µM; Lethal concentration (CL) [23]: 13.4 µM
2 | FFGHLFKLATKIIPSFFRRKNQ [MAC-22] | 1.35 | 2.11 | 10.69 | 15.15 | 12.70 | 12.03 | 12.95 | 2.58 | 2.39 | 2.39 | 2.39 | 4.45 | 6.78 | 4.22 | 4.22 | 9.12 | 1.35 | 1.35 | 1.35 | 1.35 | Lethal concentration (CL) [21]: 2.11 µM; Lethal concentration (CL) [22]: 3.72 µM; Lethal concentration (CL) [23]: 1.35 µM
